Results from patent publication US20230286973A1, “PROTEIN SECRETION INHIBITORS” (KEZAR LIFE SCIENCES, priority 2020, published 2023).
Where two headings read alike, the source gives them in different places.

Assays:
[1] = Liver Microsome Stability Assay (rat); conditions: rat liver microsomes, with NADPH, 1.0 uM compound
Protocol: (§3) Stability of a compound was assessed in the presence of liver microsomes from various sources—mouse, rat, monkey and human liver microsomes. 1.0 uM compound, 0.4% DMSO in 0.1 M Potassium Phosphate with 1.0 mg/mL liver microsomes, were incubated at 37° C. with or without 1 mM NADPH. The samples were quenched at 0, and 30 minutes.

[2] = Liver Microsome Stability Assay (mouse); conditions: mouse liver microsomes, with NADPH, 1.0 uM compound
Protocol: as §3

[3] = Liver Microsome Stability Assay (human); conditions: human liver microsomes, with NADPH, 1.0 uM compound
Protocol: as §3

[4] = Liver Microsome Stability Assay (monkey); conditions: monkey liver microsomes, with NADPH, 1.0 uM compound
Protocol: as §3

[5] = system: IL-2-FL/Gaussia Luciferase; experiment: Dox Induced IL2-FL-Gluc Assay; type: cell-based; conditions: for IC50: 24 hr Dox induction, 293FRT/TO cells, read-out: 24 hr Dox Inducible IL2FLGluc 293FRT/TO: Mean IC50; for 24 hr Dox Inducible IL2FLGluc 293FRT/TO: IL2/PD1: ratio of IL2FLGluc IC50 to PD1ssGluc IC50
Excerpt: (§1) Flp-In 293 T-REx™ cells were transfected with pcDNA™5/FRT/TO plasmid inserted with cDNA encoding Gaussia Luciferase fused to the 3′ end of cDNA encoding full length IL-2 (amino acids 1-153). Transfected cells were selected for resistance to the selectable markers Hygromycin and Blasticidin to create a stable cell line that contained the IL-2-FL/Gaussia Luciferase cDNA insert whose expression was regulated under the T-REx™ system. The day before assay, cells were trypsinized and plated in 384-well tissue culture plates. The next day, compound dilutions in DMSO/media containing doxycycline were added to the wells and incubated at 37° C., 5% CO2.
(§2) For chemical structures that include one or more stereoisomers, but are illustrated without indicating stereochemistry, the assay data refers to a mixture of stereoisomers.

[6] = system: PD1-ss+10aa/Gaussia Luciferase; experiment: Dox-Induced PD1-ss-Gluc Assay; type: cell-based; conditions: 24 hr Dox induction, 293FRT/TO cells, read-out: 24 hr Dox Inducible PD1ssGluc 293FRT/TO: Mean IC50
Excerpt: as §1, with “PD1 signal sequence plus 10 amino” for “full length IL-2 (amino”, “(N-[…]-C) (SEQ ID NO: 1).” for “1-153).”, “PD1-ss+10aa/Gaussia” for “IL-2-FL/Gaussia”
as §2

[7] = '<=>' given where both are I.A.

For O=C(Nc1nc([C@H]2CCCN2c2ccc(OC3CCNCC3)cc2)cs1)c1cccn1Cc1ccncc1 [Compound A6, (R)-N-(4-(1-(4-(piperidin-4-yloxy)phenyl)pyrrolidin-2-yl)thiazol-2-yl)-1-(pyridin-4-ylmethyl)-1H-pyrrole-2-carboxamide], the “Liver Microsome Stability (Multiple Species): Rat - % Remaining after 30 min w/NADPH” value [1] was 44.8%, the “Liver Microsome Stability (Multiple Species): Mouse - % Remaining after 30 min w/NADPH” value [2] was 37.4% and the “Liver Microsome Stability (Multiple Species): Human - % Remaining after 30 min w/NADPH” value [3] was 25.7%. The “Liver Microsome Stability (Multiple Species): Monkey - % Remaining after 30 min w/NADPH” value [4] was 25.4%.
For CCc1ccc(N2CCC[C@@H]2c2csc(NC(=O)c3cccn3Cc3ccncc3)n2)cc1 [Compound A22, (R)-N-(4-(1-(4-ethylphenyl)pyrrolidin-2-yl)thiazol-2-yl)-1-(pyridin-4-ylmethyl)-1H-pyrrole-2-carboxamide], the “Liver Microsome Stability (Multiple Species): Rat - % Remaining after 30 min w/NADPH” value [1] was 11.7%, the “Liver Microsome Stability (Multiple Species): Mouse - % Remaining after 30 min w/NADPH” value [2] was 15.8% and the “Liver Microsome Stability (Multiple Species): Human - % Remaining after 30 min w/NADPH” value [3] was 29.1%. For the same compound, the “Liver Microsome Stability (Multiple Species): Monkey - % Remaining after 30 min w/NADPH” value [4] was 17.6%.
In the case of N#CC[C@@H]1CC[C@H]1Cn1cccc1C(=O)Nc1nc([C@H]2CCCN2c2ccccc2)cs1 [Compound C18, 1-(((1R,2S)-2-(cyanomethyl)cyclobutyl)methyl)-N-(4-((R)-1-phenylpyrrolidin-2-yl)thiazol-2-yl)-1H-pyrrole-2-carboxamide], the “Liver Microsome Stability (Multiple Species): Rat - % Remaining after 30 min w/NADPH” value [1] is reported as 0.2%, the “Liver Microsome Stability (Multiple Species): Mouse - % Remaining after 30 min w/NADPH” value [2] is reported as 0.15% and the “Liver Microsome Stability (Multiple Species): Human - % Remaining after 30 min w/NADPH” value [3] is reported as 0.07%. For the same compound, the “Liver Microsome Stability (Multiple Species): Monkey - % Remaining after 30 min w/NADPH” value [4] was 0.08%.
In the case of CC(C)c1cccc(/C=C/c2csc(NC(=O)c3cccn3Cc3ccncc3)n2)n1 [Compound E55, (E)-N-(4-(2-(6-isopropylpyridin-2-yl)vinyl)thiazol-2-yl)-1-(pyridin-4-ylmethyl)-1H-pyrrole-2-carboxamide], the IC50 ([5]; mean) is reported as 2980 nM, the “24 hr Dox Inducible IL2FLGluc 293FRT/TO: IL2/PD1” value [5, 7] is reported as 9.5 and the IC50 ([6]; mean) is reported as 315 nM.
For O=C(Nc1nc([C@H]2CCCN2c2ncccn2)cs1)c1cccn1Cc1ccncc1 [Compound A32, (R)-1-(pyridin-4-ylmethyl)-N-(4-(1-(pyrimidin-2-yl)pyrrolidin-2-yl)thiazol-2-yl)-1H-pyrrole-2-carboxamide], the “Liver Microsome Stability (Multiple Species): Rat - % Remaining after 30 min w/NADPH” value [1] was 0.55%, the “Liver Microsome Stability (Multiple Species): Mouse - % Remaining after 30 min w/NADPH” value [2] was 0.17% and the “Liver Microsome Stability (Multiple Species): Human - % Remaining after 30 min w/NADPH” value [3] was 0.24%. For the same compound, the “Liver Microsome Stability (Multiple Species): Monkey - % Remaining after 30 min w/NADPH” value [4] was 0.05%.
In the case of CC(C)c1ccc(N2CCC[C@@H]2c2csc(NC(=O)c3cccn3Cc3ccncc3)n2)cc1 [Compound A23, (R)-N-(4-(1-(4-isopropylphenyl)pyrrolidin-2-yl)thiazol-2-yl)-1-(pyridin-4-ylmethyl)-1H-pyrrole-2-carboxamide], the “Liver Microsome Stability (Multiple Species): Rat - % Remaining after 30 min w/NADPH” value [1] is reported as 40.2%, the “Liver Microsome Stability (Multiple Species): Mouse - % Remaining after 30 min w/NADPH” value [2] is reported as 25.3% and the “Liver Microsome Stability (Multiple Species): Human - % Remaining after 30 min w/NADPH” value [3] is reported as 24.7%. For the same compound, the “Liver Microsome Stability (Multiple Species): Monkey - % Remaining after 30 min w/NADPH” value [4] was 29.9%.
In the case of CC1=NC(/C=C/c2csc(NC(=O)c3cccn3Cc3ccncc3)n2)CO1 (centres unmarked) [Compound B14], the “Liver Microsome Stability (Multiple Species): Rat - % Remaining after 30 min w/NADPH” value [1] is reported as 3.31%, the “Liver Microsome Stability (Multiple Species): Mouse - % Remaining after 30 min w/NADPH” value [2] is reported as 2.9% and the “Liver Microsome Stability (Multiple Species): Human - % Remaining after 30 min w/NADPH” value [3] is reported as 3.9%. The “Liver Microsome Stability (Multiple Species): Monkey - % Remaining after 30 min w/NADPH” value [4] was 6.02%.
For O=C(NC/C=C/c1csc(NC(=O)c2cccn2Cc2ccncc2)n1)c1ccccc1 [Compound E54, (E)-N-(4-(3-benzamidoprop-1-en-1-yl)thiazol-2-yl)-1-(pyridin-4-ylmethyl)-1H-pyrrole-2-carboxamide], the “Liver Microsome Stability (Multiple Species): Rat - % Remaining after 30 min w/NADPH” value [1] was 6.61%, the “Liver Microsome Stability (Multiple Species): Mouse - % Remaining after 30 min w/NADPH” value [2] was 1.05% and the “Liver Microsome Stability (Multiple Species): Human - % Remaining after 30 min w/NADPH” value [3] was 0.37%. The “Liver Microsome Stability (Multiple Species): Monkey - % Remaining after 30 min w/NADPH” value [4] was 0.17%.
In the case of Cn1ccnc1/C=C/c1csc(NC(=O)c2cccn2Cc2ccncc2)n1 [Compound B20, (E)-N-(4-(2-(1-methyl-1H-imidazol-2-yl)vinyl)thiazol-2-yl)-1-(pyridin-4-ylmethyl)-1H-pyrrole-2-carboxamide], the IC50 [5] is reported as over 25000 nM, the “24 hr Dox Inducible IL2FLGluc 293FRT/TO: IL2/PD1” value [5] is reported as over 4.6 and the IC50 [6] is reported as 5420 nM.
For O=C(Nc1nc([C@H]2CCCN2c2ccc(C3CC3)cc2)cs1)c1cccn1Cc1ccncc1 [Compound A24, (R)-N-(4-(1-(4-cyclopropylphenyl)pyrrolidin-2-yl)thiazol-2-yl)-1-(pyridin-4-ylmethyl)-1H-pyrrole-2-carboxamide], the “Liver Microsome Stability (Multiple Species): Rat - % Remaining after 30 min w/NADPH” value [1] was 35.9%, the “Liver Microsome Stability (Multiple Species): Mouse - % Remaining after 30 min w/NADPH” value [2] was 19.9% and the “Liver Microsome Stability (Multiple Species): Human - % Remaining after 30 min w/NADPH” value [3] was 22.4%. The “Liver Microsome Stability (Multiple Species): Monkey - % Remaining after 30 min w/NADPH” value [4] was 22.5%.
For O=C(Nc1nc([C@H]2CCCN2c2ccccc2)cs1)c1cccn1Cc1ccncc1F [Compound E27, (R)-1-((3-fluoropyridin-4-yl)methyl)-N-(4-(1-phenylpyrrolidin-2-yl)thiazol-2-yl)-1H-pyrrole-2-carboxamide], the IC50 ([5]; mean) was 56.8 nM, the “24 hr Dox Inducible IL2FLGluc 293FRT/TO: IL2/PD1” value [5, 7] was 3.2 and the IC50 ([6]; mean) was 17.5 nM.
With CN1C(=O)CCCC1/C=C/c1csc(NC(=O)c2cccn2Cc2ccncc2)n1 (centres unmarked) [Compound B19, (E)-N-(4-(2-(1-methyl-6-oxopiperidin-2-yl)vinyl)thiazol-2-yl)-1-(pyridin-4-ylmethyl)-1H-pyrrole-2-carboxamide] the “Liver Microsome Stability (Multiple Species): Rat - % Remaining after 30 min w/NADPH” value [1] was 1.18%, the “Liver Microsome Stability (Multiple Species): Mouse - % Remaining after 30 min w/NADPH” value [2] was 0.83% and the “Liver Microsome Stability (Multiple Species): Human - % Remaining after 30 min w/NADPH” value [3] was 0.05%. The “Liver Microsome Stability (Multiple Species): Monkey - % Remaining after 30 min w/NADPH” value [4] was 0.03%.
In the case of O=C(Nc1nc([C@H]2CCCN2c2cnccn2)cs1)c1cccn1Cc1ccncc1 [Compound A30, (R)-N-(4-(1-(pyrazin-2-yl)pyrrolidin-2-yl)thiazol-2-yl)-1-(pyridin-4-ylmethyl)-1H-pyrrole-2-carboxamide], the “Liver Microsome Stability (Multiple Species): Rat - % Remaining after 30 min w/NADPH” value [1] is reported as 0.21%, the “Liver Microsome Stability (Multiple Species): Mouse - % Remaining after 30 min w/NADPH” value [2] is reported as 0.86% and the “Liver Microsome Stability (Multiple Species): Human - % Remaining after 30 min w/NADPH” value [3] is reported as 0.27%. The “Liver Microsome Stability (Multiple Species): Monkey - % Remaining after 30 min w/NADPH” value [4] was 0.03%.
With CN1C(=O)OCC1/C=C/c1csc(NC(=O)c2cccn2Cc2ccncc2)n1 (centres unmarked) [Compound B15, (E)-N-(4-(2-(3-methyl-2-oxooxazolidin-4-yl)vinyl)thiazol-2-yl)-1-(pyridin-4-ylmethyl)-1H-pyrrole-2-carboxamide] the “Liver Microsome Stability (Multiple Species): Rat - % Remaining after 30 min w/NADPH” value [1] was 0.28%, the “Liver Microsome Stability (Multiple Species): Mouse - % Remaining after 30 min w/NADPH” value [2] was 0.34% and the “Liver Microsome Stability (Multiple Species): Human - % Remaining after 30 min w/NADPH” value [3] was 0.11%. For the same compound, the “Liver Microsome Stability (Multiple Species): Monkey - % Remaining after 30 min w/NADPH” value [4] was 0.4%.
For O=C(Nc1nc([C@H]2CCCN2c2ccccc2)cs1)c1cccn1CCCCc1cnn[nH]1 [Compound C26, (R)-1-(4-(1H-1,2,3-triazol-5-yl)butyl)-N-(4-(1-phenylpyrrolidin-2-yl)thiazol-2-yl)-1H-pyrrole-2-carboxamide], the IC50 ([5]; mean) was over 25000 nM, the “24 hr Dox Inducible IL2FLGluc 293FRT/TO: IL2/PD1” value [5, 7] was over 3.1 and the IC50 ([6]; mean) was 7970 nM.
